We go through seven molecules from ChEMBL document CHEMBL1201862, “PubChem BioAssay data set” (2004).

Structures are written as SMILES. Activity calls are given as the source filed them. A value given as a limit tells only on which side of the number the result lay.

In one test the target is T1, Streptokinase A (Streptococcus pyogenes serotype M1, UniProt P10520).
T1 sequence (P10520 whole entry): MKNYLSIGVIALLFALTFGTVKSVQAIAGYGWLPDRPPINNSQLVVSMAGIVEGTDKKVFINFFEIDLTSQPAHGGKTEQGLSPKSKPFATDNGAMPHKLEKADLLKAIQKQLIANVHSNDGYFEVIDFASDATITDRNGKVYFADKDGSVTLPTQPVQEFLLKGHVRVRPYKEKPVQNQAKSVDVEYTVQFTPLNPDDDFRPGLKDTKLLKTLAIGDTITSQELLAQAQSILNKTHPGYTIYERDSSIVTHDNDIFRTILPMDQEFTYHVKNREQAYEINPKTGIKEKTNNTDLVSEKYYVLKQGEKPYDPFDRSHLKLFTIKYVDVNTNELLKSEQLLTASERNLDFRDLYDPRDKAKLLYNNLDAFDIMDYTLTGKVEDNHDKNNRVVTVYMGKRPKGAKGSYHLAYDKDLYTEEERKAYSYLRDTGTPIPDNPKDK
In words: viability-normalized secreted streptokinase activity reduction – plasminogen activation absorbance, OD405, dose response (AID 1914).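 Also: secreted streptokinase activity via plasminogen activation per viability signal from cell pellet.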 The class given is functional, Streptococcus pyogenes M1 GAS.

Test [1] in a line: alpha-synuclein stem-loop luciferase translation blockers – H4 neuroglioma cells, luminescence, confirmation (AID 1988). The class given is functional, cell-based.
Test [2] can be described thus: luciferase reporter signal suppression in cells – H4 neuroglioma cells, luminescence, dose response (AID 1990). Format: functional, cell-based.
Test [3] can be described thus: HEK-293T viability loss after treatment – luminescence, T-cell screen hits, cytotoxicity control for TCR NF-kB inhibitor project, dose response (AID 489026).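 Also: cells exposed to compound about 14 hours before the viability readout.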 The class given is functional, cell-based.
Test [4] can be described thus: viability of HCT116 lacking mutant beta-catenin – cell-based, human colon tumor, dose response (AID 1045).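 Also: HCT116 colon tumor cells with beta catenin knocked out; cells exposed to compound for 60 hours.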 The class given is functional.
Test [5] concerns the target T2, Delta-type opioid receptor (Homo sapiens, UniProt P41143). In words: HTS Image-Based Screen for Antagonists of the DOR Receptor. [Related pubchem assays (depositor defined):AID1777, AID1785, AID1786, AID2133]. Format: functional.
In a further test the target is Beta Lactamase (Pseudomonas aeruginosa, UniProt Q932Y6). In words: BLA reporter interference, concentration series – BLA reporter cells, FRET fluorescence, artefact control for TLR9-MyD88 binding inhibitor project, dose response (AID 588341).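 Also: cell based assay in CHO-K1 cells stably expressing beta-lactamase.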 The class given is cell-based.
The next test deals with Mu-type opioid receptor (Homo sapiens, UniProt P35372). In words: HTS Image-Based Screen for Agonists of the MOR Receptor. [Related pubchem assays (depositor defined):AID1777, AID1785, AID1786, AID2133]. Format: functional.
Test [6] can be described thus: viability of PTEN-deleted HCT116 cells – cell-based, HCT116 PTEN knockout, dose response (AID 1047).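 Also: HCT116 colon tumor cells with PTEN knocked out; cells exposed to compound for 60 hours before readout.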 Format: functional.
The target in test [7] is T3, Kappa-type opioid receptor (Homo sapiens, UniProt P41145). Format: functional.
The test system of test [8] is Streptococcus sp. 'group A'. In words: Streptococcus pyogenes SK(-)GAS viability under kanamycin – luminescence, BacTiterGlo, confirmation, counter-screen for streptokinase expression inhibitor project, dose response (AID 1900). Format: functional, organism-based.
Test [9] deals with T3, Kappa-type opioid receptor. Format: functional. This is another data set of the same source.
Test [10] in a line: Luminescence Cell-Based Dose Response HTS to Identify Inhibitors of 5'UTR Stem-Loop Driven Prion Protein mRNA Translation in H4 Neuroglioblastoma Cells. [Related pubchem assays: 1827 (Project Summary), 1813 (Primary HTS)]. Format: functional.
The target of test [11] is T2, Delta-type opioid receptor. Kind of test: HTS Image-Based Screen for Agonists of the DOR Receptor. [Related pubchem assays (depositor defined):AID1777, AID1786, AID2133]. Format: functional.
Test [12] is described as follows: non-specific 3'UTR reporter inhibition in Clone20-Shn3RL – cell-based, Renilla luciferase, cherry-picked, counter-screen for Shn3 inhibitor project, dose response (AID 624133). Format: functional.
In another test the test system is CHO. In words: CHO cell viability loss, potency – luminescence, cytotoxicity control for TLR9-MyD88 binding inhibitor project, dose response (AID 588339).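 Also: CHO cells stably coexpressing TLR9 and MyD88 fusions from primary screen; compound exposure lasted 48 hours before viability readout.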 Format: functional, cell-based, hamster. The note with it: Cricetulus griseus.
Another test deals with Streptococcus. Kind of test: GAS UMAA2166 growth inhibition – luminescence, BacTiterGlo, counter-screen for streptokinase expression inhibitor project, dose response (AID 1915).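 Also: potency for reduction of bacterial viability or growth.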 The class given is functional, organism-based.
Test [13] in a line: reduction of Shn3 3'UTR-driven luciferase in osteoblasts – cell-based, Clone20 osteoblasts, firefly luciferase, cherry-picked, dose response (AID 624132).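 Also: firefly luciferase luminescence from reporter carrying the Shn3 3'UTR in osteoblasts.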 The class given is functional.
A short description of test [14]: loss of viability in HepG2 cells – cell-based, CellTiter-Glo, cherry-picked, cytotoxicity control for Shn3 inhibitor project, dose response (AID 624134). The class given is functional.
A further test deals with T4, fMet-Leu-Phe receptor (Homo sapiens, UniProt P21462).
T4 sequence (P21462 whole entry): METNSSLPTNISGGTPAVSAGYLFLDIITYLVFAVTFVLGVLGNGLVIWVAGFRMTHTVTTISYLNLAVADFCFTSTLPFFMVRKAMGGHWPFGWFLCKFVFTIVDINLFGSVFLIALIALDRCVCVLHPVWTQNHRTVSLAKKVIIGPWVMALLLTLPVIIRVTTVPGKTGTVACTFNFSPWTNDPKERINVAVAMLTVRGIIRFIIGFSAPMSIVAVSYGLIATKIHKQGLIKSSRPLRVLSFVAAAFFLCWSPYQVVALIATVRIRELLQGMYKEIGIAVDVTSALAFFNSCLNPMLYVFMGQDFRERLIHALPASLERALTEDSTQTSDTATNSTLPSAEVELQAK
In words: formyl peptide receptor binders – dose response (AID 519). The class given is functional.

For test [15], the target named is T5, Beta-galactosidase (Escherichia coli, UniProt Q8VNN2). Format: functional.
Test [16] concerns Escherichia coli. Kind of test: microbe, parasite or virus in culture.
Test [17] concerns Escherichia coli. Kind of test: microbe, parasite or virus in culture. This is another data set of the same source.
For test [18], the target named is T5, Beta-galactosidase. Kind of test: PubChem AID 485352. The class given is functional.
For test [19], the target named is Type-1 angiotensin II receptor (Homo sapiens, UniProt P30556). Kind of test: antagonism of angiotensin II type 1 receptor – cell-based, uHTS hits, selectivity assay for APJ receptor antagonist project, dose response (AID 463214).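 Also: antagonist potency against angiotensin II stimulated AT1 response.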 The class given is functional.
The target of test [20] is Serine/threonine-protein phosphatase (Candida dubliniensis (strain CD36 / CBS 7987 / NCPF 3949 / NRRLY-17841) (Yeast), UniProt B9W6M3). Kind of test: blockers of CaCl2-induced CDRE-lacZ signaling – S. cerevisiae, luminescence, secondary, dose response (AID 2388).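 Also: yeast reporter cells carrying a calcineurin-responsive lacZ construct stimulated with calcium chloride; luminescent beta-galactosidase reporter signal in whole cells rather than isolated phosphatase activity; potency for inhibition where a drop in reporter signal means calcineurin blockade.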 Format: functional, cell-based.
Test [21] in a line: fluconazole-exposed Candida albicans growth modulators – fluorescence, retest, confirmation (AID 2467). Format: functional, cell-based.
In test [22] the target is ATP-dependent molecular chaperone HSP82 (Candida albicans (strain WO-1) (Yeast), UniProt C4YTQ8). Kind of test: steroid-induced GRE reporter decrease in yeast – S. cerevisiae, luminescence, Hsp90 inhibitor project, dose response (AID 2400).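 Also: beta-galactosidase luminescence from glucocorticoid response element reporter as proxy for Hsp90 function; inhibitor potency where signal loss means Hsp90 inhibition.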 The class given is functional, cell-based.
A short description of test [23]: NIH-3T3 fibroblast cytotoxicity, dose response, cytotoxicity control, cell-based, fluorescence, Alamar Blue, secondary assay (AID 2327).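 Also: NIH-3T3 mouse fibroblasts cultured with fluconazole at 8 µg/mL.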 Format: functional.
In a further test the target is Genome polyprotein (dengue virus type 2, UniProt P29990). In words: flavivirus cap methylation enzyme inhibition – biochemical, confirmation dose response, primary screen (AID 588689). Format: functional.
A further test concerns Vero. Kind of test: viability of Vero cells under compound – cytotoxicity control for flavivirus capping enzyme inhibitors (AID 588742). The following applies: Chlorocebus sabaeus. The class given is functional.
In the next test the test system is Jurkat. Kind of test: SAR Analysis of small molecule inhibitors of […] specific antigen receptor-induced NF-kB activation in a Jurkat cell line using a luminescence assay - Set 3. [Related pubchem assays (depositor defined):AID435022, AID435025, AID465]. The class given is functional, cell-based. The following applies: Homo sapiens.
Test [24] has as its system HEK293. Kind of test: HEK293T cell viability loss, resazurin readout – resazurin fluorescence, cytotoxicity control for NF-kB activator project, SAR follow-up (AID 493251). Format: functional, cell-based. The following applies: Homo sapiens.
For test [25], the system named is HEK293. In words: SAR Analysis of small molecule inhibitors of B-cell specific antigen receptor-induced NF-kB activation in a HEK-293T cell line using a luminescence assay - Set 2. [Related pubchem assays (depositor defined):AID435022, AID435025, AID489021]. The class given is functional, cell-based. The following applies: Homo sapiens.
Another test concerns the target Phospholipase D1 (Homo sapiens, UniProt Q13393). Kind of test: cellular phospholipase D1 inhibition IC50 – cell-based, dose response (AID 602151).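 Also: cellular PLD1 assay in Calu-1 cells stimulated with PMA.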 The class given is functional.
The target in another test is Phospholipase D2 (Homo sapiens, UniProt O14939). In words: cellular phospholipase D2 inhibition IC50 – cell-based, dose response (AID 602147).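 Also: cellular assay in HEK293 cells overexpressing GFP-tagged PLD2.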 Format: functional.
Phospholipase D2, sequence (O14939 whole entry): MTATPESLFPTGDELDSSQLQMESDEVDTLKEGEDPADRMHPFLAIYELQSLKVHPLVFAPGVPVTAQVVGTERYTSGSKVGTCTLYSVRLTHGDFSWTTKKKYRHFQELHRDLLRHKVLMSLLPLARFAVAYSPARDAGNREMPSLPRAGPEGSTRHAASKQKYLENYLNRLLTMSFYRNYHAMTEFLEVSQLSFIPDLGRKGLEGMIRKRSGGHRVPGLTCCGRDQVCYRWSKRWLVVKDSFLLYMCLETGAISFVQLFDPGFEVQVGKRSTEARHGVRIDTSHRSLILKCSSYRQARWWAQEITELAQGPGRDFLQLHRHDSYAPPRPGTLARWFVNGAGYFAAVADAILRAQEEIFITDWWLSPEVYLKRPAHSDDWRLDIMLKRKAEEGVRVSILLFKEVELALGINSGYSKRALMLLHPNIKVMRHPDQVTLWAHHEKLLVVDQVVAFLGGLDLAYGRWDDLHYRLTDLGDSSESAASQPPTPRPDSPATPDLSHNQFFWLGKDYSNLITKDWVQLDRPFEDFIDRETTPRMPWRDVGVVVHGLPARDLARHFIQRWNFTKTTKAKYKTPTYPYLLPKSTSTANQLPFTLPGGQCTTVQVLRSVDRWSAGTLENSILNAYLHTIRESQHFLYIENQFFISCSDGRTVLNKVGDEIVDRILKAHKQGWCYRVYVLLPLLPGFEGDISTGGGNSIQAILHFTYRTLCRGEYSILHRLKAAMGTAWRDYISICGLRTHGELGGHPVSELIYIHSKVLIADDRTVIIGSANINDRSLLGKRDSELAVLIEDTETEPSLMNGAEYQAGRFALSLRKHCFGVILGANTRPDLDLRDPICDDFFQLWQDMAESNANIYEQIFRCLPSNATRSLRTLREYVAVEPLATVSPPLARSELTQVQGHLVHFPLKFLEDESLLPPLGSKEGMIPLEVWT

T5 sequence (Q8VNN2 whole entry): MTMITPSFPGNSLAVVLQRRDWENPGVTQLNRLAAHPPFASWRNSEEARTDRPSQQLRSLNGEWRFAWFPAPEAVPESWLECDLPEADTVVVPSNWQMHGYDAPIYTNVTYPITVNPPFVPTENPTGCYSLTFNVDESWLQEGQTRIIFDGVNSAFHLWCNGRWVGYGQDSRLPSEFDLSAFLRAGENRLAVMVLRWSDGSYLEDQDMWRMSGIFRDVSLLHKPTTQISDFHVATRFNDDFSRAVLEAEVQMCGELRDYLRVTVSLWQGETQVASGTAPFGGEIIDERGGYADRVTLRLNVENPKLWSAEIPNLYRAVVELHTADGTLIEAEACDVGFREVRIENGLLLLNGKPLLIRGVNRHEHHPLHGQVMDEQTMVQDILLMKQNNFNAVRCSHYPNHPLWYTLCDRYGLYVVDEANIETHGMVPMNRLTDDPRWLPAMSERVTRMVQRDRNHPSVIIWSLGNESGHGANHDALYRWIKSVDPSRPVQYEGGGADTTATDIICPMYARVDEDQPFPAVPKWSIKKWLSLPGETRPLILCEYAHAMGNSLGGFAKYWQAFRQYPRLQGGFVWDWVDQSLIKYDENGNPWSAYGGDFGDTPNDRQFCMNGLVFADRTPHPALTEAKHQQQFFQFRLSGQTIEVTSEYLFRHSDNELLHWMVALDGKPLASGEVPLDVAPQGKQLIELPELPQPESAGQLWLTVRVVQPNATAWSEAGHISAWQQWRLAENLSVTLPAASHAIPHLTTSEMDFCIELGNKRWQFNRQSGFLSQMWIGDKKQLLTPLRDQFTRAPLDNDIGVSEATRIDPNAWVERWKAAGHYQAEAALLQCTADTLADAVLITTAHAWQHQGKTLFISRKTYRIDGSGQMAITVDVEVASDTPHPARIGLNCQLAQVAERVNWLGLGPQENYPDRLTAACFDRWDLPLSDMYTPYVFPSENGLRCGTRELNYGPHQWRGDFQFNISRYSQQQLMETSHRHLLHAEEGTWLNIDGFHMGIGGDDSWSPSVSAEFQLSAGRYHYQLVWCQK
T2 sequence (P41143 whole entry): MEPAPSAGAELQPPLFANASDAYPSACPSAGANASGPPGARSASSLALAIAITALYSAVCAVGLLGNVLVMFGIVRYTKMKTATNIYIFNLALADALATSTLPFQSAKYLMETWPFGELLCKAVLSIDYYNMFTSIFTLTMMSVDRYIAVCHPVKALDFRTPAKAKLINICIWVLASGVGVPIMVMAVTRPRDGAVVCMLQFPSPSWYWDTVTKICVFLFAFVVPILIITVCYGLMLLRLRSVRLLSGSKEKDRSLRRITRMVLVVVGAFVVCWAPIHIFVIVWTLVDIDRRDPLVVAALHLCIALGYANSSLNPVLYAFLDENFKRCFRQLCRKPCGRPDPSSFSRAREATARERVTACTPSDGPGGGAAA
T3 sequence (P41145 whole entry): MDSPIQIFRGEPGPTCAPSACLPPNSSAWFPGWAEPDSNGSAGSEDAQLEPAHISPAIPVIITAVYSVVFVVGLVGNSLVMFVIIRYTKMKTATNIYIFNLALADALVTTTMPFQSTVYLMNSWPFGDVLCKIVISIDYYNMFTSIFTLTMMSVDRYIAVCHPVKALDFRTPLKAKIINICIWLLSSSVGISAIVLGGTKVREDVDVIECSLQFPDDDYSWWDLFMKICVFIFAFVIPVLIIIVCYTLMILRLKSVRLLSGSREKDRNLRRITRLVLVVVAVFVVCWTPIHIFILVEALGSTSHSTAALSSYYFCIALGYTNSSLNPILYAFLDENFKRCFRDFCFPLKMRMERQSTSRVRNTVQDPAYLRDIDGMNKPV
Serine/threonine-protein phosphatase, sequence (B9W6M3 whole entry): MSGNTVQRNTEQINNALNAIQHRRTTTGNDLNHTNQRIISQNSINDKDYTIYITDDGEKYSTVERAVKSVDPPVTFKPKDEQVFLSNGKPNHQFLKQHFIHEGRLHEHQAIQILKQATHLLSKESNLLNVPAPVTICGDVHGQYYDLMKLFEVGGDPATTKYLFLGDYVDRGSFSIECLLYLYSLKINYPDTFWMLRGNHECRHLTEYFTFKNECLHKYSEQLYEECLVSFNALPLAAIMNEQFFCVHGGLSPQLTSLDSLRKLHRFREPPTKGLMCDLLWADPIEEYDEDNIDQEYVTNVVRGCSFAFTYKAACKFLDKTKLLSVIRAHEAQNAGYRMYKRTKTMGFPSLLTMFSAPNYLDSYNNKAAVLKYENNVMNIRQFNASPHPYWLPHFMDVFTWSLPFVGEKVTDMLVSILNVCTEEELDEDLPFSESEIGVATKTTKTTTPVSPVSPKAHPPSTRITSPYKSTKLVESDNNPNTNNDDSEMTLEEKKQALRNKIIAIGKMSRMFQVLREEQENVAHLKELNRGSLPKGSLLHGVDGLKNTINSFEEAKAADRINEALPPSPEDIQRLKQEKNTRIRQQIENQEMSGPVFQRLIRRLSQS
ATP-dependent molecular chaperone HSP82, sequence (C4YTQ8 whole entry): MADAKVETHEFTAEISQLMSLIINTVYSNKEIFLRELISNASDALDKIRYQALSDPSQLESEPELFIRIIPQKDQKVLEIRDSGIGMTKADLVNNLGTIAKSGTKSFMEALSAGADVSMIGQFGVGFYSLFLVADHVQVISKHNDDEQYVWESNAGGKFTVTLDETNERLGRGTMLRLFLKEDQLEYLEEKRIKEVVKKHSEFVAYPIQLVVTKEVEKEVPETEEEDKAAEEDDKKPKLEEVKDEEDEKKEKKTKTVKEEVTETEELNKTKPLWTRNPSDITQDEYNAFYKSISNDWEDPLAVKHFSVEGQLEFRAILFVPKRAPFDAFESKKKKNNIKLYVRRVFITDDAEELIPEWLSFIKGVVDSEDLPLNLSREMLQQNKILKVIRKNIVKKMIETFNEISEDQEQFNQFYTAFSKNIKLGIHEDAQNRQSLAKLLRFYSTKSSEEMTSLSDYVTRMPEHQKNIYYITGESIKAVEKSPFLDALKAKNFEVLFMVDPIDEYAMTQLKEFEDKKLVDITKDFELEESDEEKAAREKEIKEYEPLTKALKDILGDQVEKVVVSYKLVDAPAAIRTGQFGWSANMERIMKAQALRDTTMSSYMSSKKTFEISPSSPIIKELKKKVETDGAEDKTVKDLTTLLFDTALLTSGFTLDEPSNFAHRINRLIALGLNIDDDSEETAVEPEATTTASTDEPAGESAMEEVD
Type-1 angiotensin II receptor, sequence (P30556 whole entry): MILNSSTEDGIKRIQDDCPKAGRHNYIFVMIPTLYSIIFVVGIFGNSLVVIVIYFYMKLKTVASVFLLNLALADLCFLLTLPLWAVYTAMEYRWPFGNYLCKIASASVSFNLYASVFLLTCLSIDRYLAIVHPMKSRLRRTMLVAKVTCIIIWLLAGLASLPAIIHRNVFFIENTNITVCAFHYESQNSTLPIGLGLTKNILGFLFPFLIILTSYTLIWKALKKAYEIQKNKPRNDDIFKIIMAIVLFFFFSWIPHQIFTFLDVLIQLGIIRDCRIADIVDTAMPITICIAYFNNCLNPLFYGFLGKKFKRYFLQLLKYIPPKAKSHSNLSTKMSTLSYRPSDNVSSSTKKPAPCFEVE
Mu-type opioid receptor, sequence (P35372 whole entry): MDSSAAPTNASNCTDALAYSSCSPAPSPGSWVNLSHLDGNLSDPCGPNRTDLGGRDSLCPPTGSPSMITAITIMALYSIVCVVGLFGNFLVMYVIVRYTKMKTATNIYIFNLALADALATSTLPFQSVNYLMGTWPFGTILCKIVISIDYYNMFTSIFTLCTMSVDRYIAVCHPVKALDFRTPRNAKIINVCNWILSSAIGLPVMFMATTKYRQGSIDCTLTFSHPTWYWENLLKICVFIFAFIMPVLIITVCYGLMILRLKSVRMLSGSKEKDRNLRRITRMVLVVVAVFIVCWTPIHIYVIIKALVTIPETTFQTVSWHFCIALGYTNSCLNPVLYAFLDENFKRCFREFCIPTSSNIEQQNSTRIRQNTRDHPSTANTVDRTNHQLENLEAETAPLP

For `O=S(=O)(Nc1cccc2ncccc12)c1cccs1`, the EC50 on Streptokinase A is > 150 µM (not active); in test [1] it was 11.8 µM (active); in [2] it was 15.3 µM (active); in test [4], 1.62 µM (active); on Mu-type opioid receptor it was > 32 µM (inactive); in test [6], 1.97 µM (active). The EC50 in [8] is 3.58 µM (active); in test [10], 7.05 µM (active); in test [11], > 32 µM (inactive); with Streptococcus, 7.13 µM (active); at Beta-galactosidase [15] it was > 31.5 µM (inactive). Moreover, the IC50 is > 80 µM (inactive) in test [3]; > 32 µM (inactive) in [5]; > 49.7 µM (inactive) at Beta Lactamase; > 32 µM in test [7]; 2.64 µM (active) in test [9]; 4.34 µM (active) in the test on CHO. Also, the AC50 in test [12] is 13.2 µM (active); in test [13], 4.3 µM (active); in test [14], 6.33 µM (active). For the same molecule, the Ki at fMet-Leu-Phe receptor was > 66.7 µM (inactive).
With `CCC[C@@H]1C[C@@]1(CCC)[C@@H](NC(=O)c1ccccc1)c1ccc(C(=O)OC)cc1`, the AC50 in the test on Escherichia coli [16] was > 380 µM (inactive); with Escherichia coli [17], 21.2 µM (active).
With `Cc1ccc(C(=O)CNc2ccccc2)cc1`, the EC50 on Beta-galactosidase [18] is > 40 µM (inactive). Further, in test [19], the IC50 was 9.14 µM (active).
As to `CCOc1ccc(NC(=O)c2cn(-c3ccc(OCC)cc3)c(=O)c3cc(OC)c(OC)cc23)cc1`, the EC50 was > 180 µM (inactive) in test [20], 0.789 µM (active) in test [21], > 160 µM (inactive) in test [22] and > 160 µM (inconclusive) in test [23].
Take `CCOC(=O)c1c(NC(=O)/C=C/C(=O)O)sc(C)c1-c1ccc(Cl)cc1`: at Genome polyprotein, the IC50 was 43 µM (active). The CC50 with Vero is > 40 µM (active).
As for `CCOc1ccc(-c2nc(CSCC(=O)NCc3cccnc3)c(C)o2)cc1`, the IC50 in the test with Jurkat was 72.6 µM (inactive); with HEK293 [24] it was 65 µM (inactive); with HEK293 [25], 24.2 µM (inactive).
In the case of `CC(C)[C@@H](CN1CCC2(CC1)C(=O)NCN2c1ccccc1)NC(=O)c1cnc2ccccc2c1`, the concentration for half-maximal inhibition (IC50) was 0.09 µM (active) at Phospholipase D1 and 0.25 µM (active) on Phospholipase D2.
